Measurements from patent publication US4716153A, “Stable oral preparation of macrolide antibiotics and method for stabilizing the same” (priority 1982, dated 1987).
Where two headings read alike, the source gives them in different places.

Assay: AUC after oral administration of tablets to beagle dogs (bioassay of blood)
Format: in vivo
Conditions: for AUC at 6 h: dog, blood, po, 500 mg
Method: An amount of the dissolution accelerators used, showing pH 2.5-4 in an aqueous solution will be described in detail. […] In all of these cases, the elution rate of 3"-propionylleucomycin A5 is less than 60%. […] In order to obtain their good absorbability, generally, it is necessary to use the pH at which the elution rate is favorable. […] The accelerators need to be used in 5-100 mg in formulating preparations. It is particularly preferred that these dissolution accelerators, for example tartaric acid and citric acid are used in a total amount of 40-100 mg at single administration. That is, one tablet is allowed to contain about 40-100 mg in the administration of one tablet a time, and about 20-50 mg each in two tablets a time. It is also particularly preferred, when the antibiotics are applied orally in the form of powders, fine granules, capsules, granules or dry syrups, that the accelerators are used in approximately 40-100 mg to the 16-membered ring macrolide antibiotics given in a 200 mg potency a time. It is suitable for preservation that these dissolution accelerators are used coated with film-forming substances by a microcapsulization technique using the accelerators as core materials.
To a mixture comprising TMS-19-Q and light anhydrous silicic acid, 10% w/w HPMC aqueous solution was added. Then the mixture was kneaded, dried and sieved by the use of a 24 mesh sieve to obtain Granule A.
To a mixture comprising glycine, citric acid anhydride and light silicic acid, 5% w/w HPMC aqueous solution was added as binder, and the mixture was made into granules by fluidized bed method (FB method). Then the granules were dried and sieved through 24 mesh screen to obtain Granule B.
To Granule A and Granule B, L-HPC and Avicel PH301 (to be adjusted by an amount of citric acid added: 52.7-12.7 g) and magnesium stearate were added and mixed. Then, the mixed powder was molded by pressure to the size of 14×8 mm and tablets were obtained, each of which (430 mg) containing 100 mg potency of TMS-19-Q 170 mg glycine and citric acid (0, 10, 20, 30 and 40 mg).

## CCCC(=O)OC1C(C)OC(OC2C(C)OC(OC3C(CC=O)CC(C)C(O)/C=C/C=C/CC(C)OC(=O)CC(O)C3OC)C(O)C2N(C)C)CC1(C)OC(=O)CC (stereo not shown) [TMS-19-Q, 3"-propionyl leucomycin A5]
beagles, oral, citric acid 30-40 mg
  AUC versus amount of citric acid (in words): reached saturation
beagles, oral, citric acid more than 30 mg per tablet
  blood concentrations or absorbability (in words): Good blood concentrations or absorbability
read-out: AUC (area under a blood level versus time curve), 0 mg citric acid
  AUC at 6 h: 11800 ng·h/mL
read-out: AUC (area under a blood level versus time curve), 10 mg citric acid
  AUC at 6 h: 12300 ng·h/mL
read-out: AUC (area under a blood level versus time curve), 20 mg citric acid
  AUC at 6 h: 17000 ng·h/mL
read-out: AUC (area under a blood level versus time curve), 30 mg citric acid
  AUC at 6 h: 20500 ng·h/mL
read-out: AUC (area under a blood level versus time curve), 40 mg citric acid
  AUC at 6 h: 20900 ng·h/mL
